Among the data in patent US20240009175A9, “TETRAZOLE DERIVATIVES” (Merck Patent GmbH, priority 2020, published 2024) are IC50 and MNT values, retold here.

The target of series [1] is human rec ACSS2 (Homo sapiens (Human), UniProt Q9NR19). Briefly: Biochemical activity ACSS2 assay (AMP-Glo). The settings on record: human recombinant ACSS2, AMP-Glo, 180 min at 37° C. In short, it runs like this: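 1 nM C-term myc-tagged recombinant human ACSS2 with 100 μM ATP, 100 μM Coenzyme A and 500 μM acetate (final concentrations), pH 7.5, 180 min at 37° C, compound from 30 μM over 10 concentrations. Released AMP quantified by AMP-Glo luminescence; zero set with 5 μM reference ACSS2 inhibitor, IC50 derived.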

In series [2] the target is ACSS2 (Homo sapiens (Human), UniProt Q9NR19). Briefly: Cellular assay of 14C acetate incorporation into histones (IC50 ACSS2 cellular histone). The series is classed as cell-based. The following applies: HCT-15 cells. The procedure, abridged:
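HCT-15 cells preincubated 1 h with compound (0.25% DMSO), then pulsed 3 h with 14C-acetate in full DMEM/10% FBS. Histones acid-extracted (0.2 M HCl, overnight, 4 °C) after Triton lysis in sodium butyrate buffer; incorporated 14C counted by scintillation (CPM) to give IC50.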

The test system of series [3] is CHO-K1 cells. Briefly: Micronucleus assay (MNT) in vitro. The series is classed as cell-based. On the set-up: key: A: negative, putative negative (micronuclei detected beyond threshold of 60% cyctotoxicity); B: positive. The settings on record: 24 hrs treatment, 0.2 μM to 100 μM.

Sequence of ACSS2 (Q9NR19 whole entry): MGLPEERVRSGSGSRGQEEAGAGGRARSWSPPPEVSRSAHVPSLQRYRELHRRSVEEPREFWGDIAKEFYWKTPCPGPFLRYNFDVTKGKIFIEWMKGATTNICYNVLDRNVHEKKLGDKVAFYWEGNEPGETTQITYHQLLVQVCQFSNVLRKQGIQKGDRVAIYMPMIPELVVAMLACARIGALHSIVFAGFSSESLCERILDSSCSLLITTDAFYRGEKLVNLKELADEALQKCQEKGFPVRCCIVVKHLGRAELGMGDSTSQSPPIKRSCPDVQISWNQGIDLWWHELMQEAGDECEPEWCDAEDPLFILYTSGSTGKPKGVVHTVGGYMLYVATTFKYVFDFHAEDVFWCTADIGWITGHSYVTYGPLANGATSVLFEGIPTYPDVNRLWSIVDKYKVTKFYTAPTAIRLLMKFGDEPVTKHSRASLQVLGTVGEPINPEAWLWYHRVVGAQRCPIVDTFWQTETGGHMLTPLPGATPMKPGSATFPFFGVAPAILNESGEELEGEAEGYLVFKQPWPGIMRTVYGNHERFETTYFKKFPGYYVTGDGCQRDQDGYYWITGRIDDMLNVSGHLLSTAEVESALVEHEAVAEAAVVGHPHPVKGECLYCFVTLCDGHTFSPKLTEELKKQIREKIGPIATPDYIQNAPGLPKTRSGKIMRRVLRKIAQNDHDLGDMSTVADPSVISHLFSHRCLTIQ
Sequence of human rec ACSS2 (Q9NR19 whole entry): as above

As for `CCn1c(C(O)(c2ccccc2)c2cccs2)nc2nc(OC)c(-c3nnn[nH]3)cc21` (racemic) [Compound 35, [1-ethyl-5-methoxy-6-(1H-1,2,3,4-tetrazol-5-yl)-1H-imidazo[4,5-b]pyridin-2-yl](phenyl)(thiophen-2-yl)methanol], the IC50 in series [1] and in series [2] was 1 to 10 nM throughout. Moreover, in series [3], the MNT entry is “A”.
`CCn1c(C(O)(c2ccccc2)c2ncccn2)nc2nc(OC)c(-c3nnn[nH]3)cc21` (racemic) [Compound 37, [1-ethyl-5-methoxy-6-(1H-1,2,3,4-tetrazol-5-yl)-1H-imidazo[4,5-b]pyridin-2-yl](phenyl)(pyrimidin-2-yl)methanol]: the half-inhibitory concentration (IC50) in series [1] and in series [2] was 1 to 10 nM throughout. In addition, the MNT result in series [3] was “A”.
Consider `CCn1c(C(O)(c2ccccc2)c2ccccn2)nc2nc(OC)c(-c3nnn[nH]3)cc21` (racemic) [Compound 50, [1-ethyl-5-methoxy-6-(1H-1,2,3,4-tetrazol-5-yl)-1H-imidazo[4,5-b]pyridin-2-yl](phenyl)(pyridin-2-yl)methanol], for which the 50% inhibitory concentration (IC50) in series [1] was 1 to 10 nM; in series [2] it was 0.01 to 1 nM. Besides, in series [3], the MNT result was “A”.
Taken in the same sequence, the figures for `CCc1c(C(O)(c2ccccc2)c2ccccn2)nc2cc(OC)c(-c3nnn[nH]3)cn12` (single isomer, unassigned) [Compound 11, [3-Ethyl-7-methoxy-6-(1H-tetrazol-5-yl)-imidazo[1,2-a]pyridin-2-yl]-phenyl-pyridin-2-yl-methanol] were 1 to 10 nM, 10 to 100 nM and “A”.
For `CCn1c(C(O)(c2ccccc2)c2ccccn2)nc2nc(OC)c(-c3nnn[nH]3)cc21` (single isomer, unassigned) [Compound 40, [1-ethyl-5-methoxy-6-(1H-1,2,3,4-tetrazol-5-yl)-1H-imidazo[4,5-b]pyridin-2-yl](phenyl)(pyridin-2-yl)methanol] the same measures were 1 to 10 nM, 0.01 to 1 nM and “A”.
As for `CCc1c(C(O)(c2ccccc2)c2ccccc2)nc2cc(OC)c(-c3nnn[nH]3)cn12` [Compound 2, [3-Ethyl-7-methoxy-6-(1H-tetrazol-5-yl)-imidazo[1,2-a]pyridin-2-yl]-diphenyl-methanol], the IC50 in series [1] and in series [2] was 1 to 10 nM throughout. Also, in series [3], the MNT result is “A”.
For the compound `CCc1c(C(O)(c2ccccc2)c2ccccc2)nc2cc(F)c(-c3nnn[nH]3)cn12` [Compound 3, [3-Ethyl-7-fluoro-6-(1H-tetrazol-5-yl)-imidazo[1,2-a]pyridin-2-yl]-diphenyl-methanol], the results for the IC50 in series [1] and in series [2] were 1 to 10 nM and 100 to 10000 nM, respectively. Moreover, in series [3], the MNT result is listed as “A”.
Consider `CCc1c(C(O)(c2ccccc2)c2ccccc2)nc2ccc(-c3nnn[nH]3)cn12` [Compound 4, [3-Ethyl-6-(1 H-tetrazol-5-yl)-imidazo[1,2-a]pyridin-2-yl]-diphenyl-methanol], for which the results for the IC50 in series [1] and in series [2] were 10 to 100 nM and 100 to 10000 nM, respectively. Besides, the MNT entry in series [3] is given as “A”.
For `CCc1c(C(O)(c2ccccc2F)c2ccccc2F)nc2cc(Cl)c(-c3nnn[nH]3)cn12` [Compound 5, [7-Chloro-3-ethyl-6-(1H-tetrazol-5-yl)-imidazo[1,2-a]pyridin-2-yl]-bis-(2-fluoro-phenyl)-methanol] the same measures were 1 to 10 nM, 100 to 10000 nM and “A”.
Taken in the same sequence, the figures for `CCc1c(C(O)(c2ccccc2F)c2ccccc2F)nc2cc(OC)c(-c3nnn[nH]3)cn12` [Compound 6, [3-Ethyl-7-methoxy-6-(1H-tetrazol-5-yl)-imidazo[1,2-a]pyridin-2-yl]-bis-(2-fluoro-phenyl)-methanol] were 1 to 10 nM, 1 to 10 nM and “A”.
Turning to `CCc1c(C(O)(c2ccccc2)c2ccccc2)nc2cc(Cl)c(-c3nnn[nH]3)cn12` [Compound 9, [7-Chloro-3-ethyl-6-(1H-tetrazol-5-yl)-imidazo[1,2-a]pyridin-2-yl]-diphenyl-methanol], the IC50 in series [1] lay within 1 to 10 nM; in series [2] it was 100 to 10000 nM. Also, the MNT entry in series [3] is given as “A”.
Taken in the same sequence, the figures for `CCc1c(C(O)(c2ccccc2F)c2ccccc2F)nn2cc(OC)c(-c3nnn[nH]3)cc12` [Compound 19, [3-Ethyl-6-methoxy-5-(1H-tetrazol-5-yl)-pyrazolo[1,5-a]pyridin-2-yl]-bis-(2-fluoro-phenyl)-methanol] were 1 to 10 nM, 10 to 100 nM and “A”.
For `CCc1c(C(O)(c2ccccc2)c2ccccc2)nn2cc(Cl)c(-c3nnn[nH]3)cc12` [Compound 21, [6-Chloro-3-ethyl-5-(1H-tetrazol-5-yl)-pyrazolo[1,5-a]pyridin-2-yl]-diphenyl-methanol] the same measures were 1 to 10 nM, 10 to 100 nM and “A”.
Take `CCc1c(C(O)(c2ccccc2)c2ccccc2)nn2cc(OC)c(-c3nnn[nH]3)cc12` [Compound 22, [3-Ethyl-6-methoxy-5-(1H-tetrazol-5-yl)-pyrazolo[1,5-a]pyridin-2-yl]-diphenyl-methanol]: the IC50 in series [1] and in series [2] was 1 to 10 nM in each case. In addition, the MNT result in series [3] is recorded as “A”.
Take `COc1nc2nc(C(O)(c3ccccc3)c3ccccc3)n(CCO)c2cc1-c1nnn[nH]1` [Compound 34, 2-[2-(hydroxy-diphenylmethyl)-5-methoxy-6-(1H-1,2,3,4-tetrazol-5-yl)-1H-imidazo[4,5-b]pyridin-1-yl]ethan-1-ol]: the IC50 in series [1] was 1 to 10 nM; in series [2], 100 to 10000 nM. Moreover, the MNT result in series [3] is given as “A”.
For `CCn1c(C(O)(c2cccs2)c2cccs2)nc2nc(OC)c(-c3nnn[nH]3)cc21` [Compound 38, [1-ethyl-5-methoxy-6-(1H-1,2,3,4-tetrazol-5-yl)-1H-imidazo[4,5-b]pyridin-2-yl]bis(thiophen-2-yl)methanol] the same measures were 1 to 10 nM, 100 to 10000 nM and “A”.
For the compound `CCn1c(C(O)(c2ccccc2)c2ccccc2)nc2nc(Cl)c(-c3nnn[nH]3)cc21` [Compound 51, [5-chloro-1-ethyl-6-(1H-1,2,3,4-tetrazol-5-yl)-1H-imidazo[4,5-b]pyridin-2-yl]diphenylmethanol], the 50% inhibitory concentration (IC50) lay in the range of 1 to 10 nM in series [1] and 10 to 100 nM in series [2]. In addition, the MNT entry in series [3] is on record as “A”.
Taken in the same sequence, the figures for `CCn1c(C(O)(c2ccccc2F)c2ccccc2F)nc2nc(OC)c(-c3nnn[nH]3)cc21` [Compound 57, [1-ethyl-5-methoxy-6-(1H-1,2,3,4-tetrazol-5-yl)-1H-imidazo[4,5-b]pyridin-2-yl]bis(2-fluorophenyl)methanol] were 0.01 to 1 nM, 1 to 10 nM and “A”.
As to `CCn1c(C(O)(c2ccccc2)c2ccccc2)nc2nc(OC)c(-c3nnn[nH]3)cc21` [Compound 58, [1-ethyl-5-methoxy-6-(1H-1,2,3,4-tetrazol-5-yl)-1H-imidazo[4,5-b]pyridin-2-yl]diphenylmethanol], the 50% inhibitory concentration (IC50) in series [1] and in series [2] was 0.01 to 1 nM each time. Besides, the MNT entry in series [3] was “A”.
As to `CCn1c(C(O)(c2ccccc2F)c2ccccc2F)nc2nc(C)c(-c3nnn[nH]3)cc21` [Compound 59, [1-ethyl-5-methyl-6-(1H-1,2,3,4-tetrazol-5-yl)-1H-imidazo[4,5-b]pyridin-2-yl]bis(2-fluorophenyl)methanol], the half-inhibitory concentration (IC50) in series [1] was in the range of 1 to 10 nM; in series [2], 100 to 10000 nM. Moreover, in series [3], the MNT entry is “A”.
On to `CCn1c(C(O)(c2ccccc2)c2ccccc2)nc2ncc(-c3nnn[nH]3)cc21` [Compound 60, [1-ethyl-6-(1H-1,2,3,4-tetrazol-5-yl)-1H-imidazo[4,5-b]pyridin-2-yl]diphenylmethanol], for which the IC50 in series [1] fell in the range of 10 to 100 nM; in series [2], 100 to 10000 nM. Further, in series [3], the MNT result is “A”.
Turning to `CCn1c(C(O)(c2ccccc2)c2ccccc2)nc2nc(C)c(-c3nnn[nH]3)cc21` [Compound 62, [1-ethyl-5-methyl-6-(1H-1,2,3,4-tetrazol-5-yl)-1H-imidazo[4,5-b]pyridin-2-yl]diphenylmethanol], the IC50 was in the range of 1 to 10 nM in series [1] and 100 to 10000 nM in series [2]. The MNT result in series [3] is “A”.
Turning to `CCn1c(C(O)(c2ccccc2)c2ccccc2)nc2ccc(C(=O)NC[C@@H](C)O)cc21` [Reference Compound, 3-Ethyl-2-[hydroxy(diphenyl)methyl]-N-[(2R)-2-hydroxypropyl]benzimidazole-5-carboxamide, reference compound], the results for the IC50 in series [1] and in series [2] were 100 to 10000 nM and 0.01 to 1 nM, respectively. Further, the MNT entry in series [3] is “B”.

What is called IC50 is the concentration at which inhibition is half-maximal.
